Source: ChEMBL document CHEMBL1201862, “PubChem BioAssay data set” (2004)
The source made the active and inactive calls.

Tests used:
[1] = Counterscreen for IDE inhibitors: Luminescence-based cell-based high throughput dose response assay to identify compounds that are cytotoxic to HEK cells. [Related pubchem assays: 434962 (Primary screen (IDE inhibitors in singlicate)), 449730 (Counterscreen (Cytotoxicity in triplicate)), 435028 (Confirmation (IDE inhibitors in triplicate)) …; assay type: functional; conditions: HEK293
[2] = target: T1, Insulin-degrading enzyme (Homo sapiens, UniProt P14735); experiment: Dose Response: Fluorescence polarization-based cell-based high throughput dose response assay for inhibitors of insulin-degrading enzyme (IDE). [Related pubchem assays: 434962 (Primary screen (IDE inhibitors in singlicate)), 449730 (Counterscreen (Cytotoxicity in triplicate)), 435028 (Confirmation (IDE inhibitors in triplicate)), 434984 (Summary …; assay type: functional
T1 sequence (P14735 whole entry): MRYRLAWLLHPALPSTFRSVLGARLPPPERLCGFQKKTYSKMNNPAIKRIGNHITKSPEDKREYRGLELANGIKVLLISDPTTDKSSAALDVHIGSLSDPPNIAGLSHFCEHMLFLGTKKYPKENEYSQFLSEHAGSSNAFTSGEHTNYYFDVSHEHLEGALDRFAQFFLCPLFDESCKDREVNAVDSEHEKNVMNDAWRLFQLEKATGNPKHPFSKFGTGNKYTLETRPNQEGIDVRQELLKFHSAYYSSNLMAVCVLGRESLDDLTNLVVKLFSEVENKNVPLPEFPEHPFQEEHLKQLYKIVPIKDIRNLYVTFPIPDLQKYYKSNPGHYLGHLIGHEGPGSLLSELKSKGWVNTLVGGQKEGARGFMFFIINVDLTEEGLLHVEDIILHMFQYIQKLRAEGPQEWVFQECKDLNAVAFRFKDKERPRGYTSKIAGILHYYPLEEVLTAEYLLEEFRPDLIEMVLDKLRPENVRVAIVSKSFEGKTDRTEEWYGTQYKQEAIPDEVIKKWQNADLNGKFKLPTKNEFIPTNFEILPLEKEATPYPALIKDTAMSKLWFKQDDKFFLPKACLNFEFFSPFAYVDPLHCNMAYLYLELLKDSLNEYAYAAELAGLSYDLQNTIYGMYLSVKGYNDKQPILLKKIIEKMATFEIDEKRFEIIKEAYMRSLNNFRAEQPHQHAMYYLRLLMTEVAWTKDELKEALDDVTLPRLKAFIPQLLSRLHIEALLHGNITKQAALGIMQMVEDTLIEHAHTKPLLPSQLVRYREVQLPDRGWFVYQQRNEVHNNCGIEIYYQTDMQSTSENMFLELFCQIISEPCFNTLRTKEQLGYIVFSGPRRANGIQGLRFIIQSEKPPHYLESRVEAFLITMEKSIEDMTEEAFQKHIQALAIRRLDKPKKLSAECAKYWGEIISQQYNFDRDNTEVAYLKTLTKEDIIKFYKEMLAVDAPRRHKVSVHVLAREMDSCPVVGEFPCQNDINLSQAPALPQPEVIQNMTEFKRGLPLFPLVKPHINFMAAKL

[3] = target: Peroxisome proliferator-activated receptor gamma/Nuclear receptor coactivator 1 (Homo sapiens, UniProt P37231); assay type: functional;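 also: agonist potency as compounds enhance coactivator SRC-1 recruitment to PPARgamma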
[4] = target: Peroxisome proliferator-activated receptor gamma/Nuclear receptor coactivator 3 (Homo sapiens, UniProt P37231); assay type: functional;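 also: agonist potency for raising coactivator recruitment to the receptor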
[5] = target: Peroxisome proliferator-activated receptor gamma/Nuclear receptor coactivator 2 (Homo sapiens, UniProt P37231); assay type: functional;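 also: agonist potency for raising coactivator recruitment to the receptor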
[6] = A Cell Based Secondary Assay To Explore Cytotoxicity of Compounds that Sensitize Mycobacterium Tuberculosis to Beta-Lactam Antibiotics.; assay type: functional
[7] = target: Serine/threonine-protein phosphatase PP1-alpha catalytic subunit (Homo sapiens, UniProt P62136); experiment: inhibition of protein phosphatase 1 activity – biochemical, fluorescence, dose response (AID 2403);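 also: phosphatase turnover of OMFP into fluorescent 3-O-methylfluorescein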
[8] = NIH-3T3 fibroblast cytotoxicity, dose response, cytotoxicity control, cell-based, fluorescence, Alamar Blue, secondary assay (AID 2327); assay type: functional;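 also: NIH-3T3 mouse fibroblasts cultured with fluconazole at 8 µg/mL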
[9] = target: Serine/threonine-protein phosphatase (Homo sapiens, UniProt Q9BPW0); experiment: Counterscreen for inhibitors of PP1: fluorescence-based biochemical high throughput dose response assay to identify inhibitors of Protein Phosphatase 5 (PP5). [Related pubchem assays: 2034 (Summary (PP5 inhibitors)), 1987 (PP5 inhibitors in singlate), 2235 (PP1 inhibitors in singlate)]
[10] = fluconazole-exposed Candida albicans growth modulators – fluorescence, retest, confirmation (AID 2467); assay type: functional, cell-based
[11] = NIH3T3 cell viability loss – ATP luminescence, mouse fibroblasts, counter-screen, dose response (AID 2010); assay type: functional, cell-based;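 also: cells exposed to compound for about 90 hours before reading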
[12] = tested on: HEK293; experiment: EBV LMP1 TES2 canonical NF-kB signalling blockers – cell-based, HEK293, luciferase, cherry-pick, dose response (AID 588343); assay type: functional; conditions: Homo sapiens
[13] = cells; assay type: functional, cell-based
[14] = target: Induced myeloid leukemia cell differentiation protein Mcl-1 (Homo sapiens, UniProt Q07820); experiment: blockers of MCL1 binding to BIM peptide – biochemical, fluorescence polarization, BIM-BH3 peptide, 1536-well, dose response (AID 2217)
[15] = target: Latent membrane protein 1 (Human herpesvirus 4 (strain B95-8), UniProt P03230); experiment: LMP1 TES1 pathway selectivity over dsRED control – imaging, HEK293T, dual-color eGFP/dsRED, cherry-picks, selectivity assay for LMP1 NF-kB inhibitor project, dose response (AID 588398); assay type: functional, cell-based
[16] = target: Bcl-2-like protein 1 (Homo sapiens, UniProt Q07817); experiment: blockers of BCLXL peptide binding – biochemical, fluorescence polarization, 1536-well, selectivity assay for MCL1 inhibitor project, dose response (AID 2218)
[17] = Trypanosoma cruzi growth suppression in host cells – NIH3T3 host cells, beta-gal luminescence, confirmation (AID 2044); assay type: functional, cell-based;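 also: intracellular parasites grown in NIH/3T3 mouse fibroblasts as host cells; luminescent beta-galactosidase reporter signal from transgenic T. cruzi replicating inside host cells; inhibitors lower the luminescence signal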
[18] = cells; assay type: functional, cell-based; remark: listed apart in the source
[19] = target: Steroidogenic factor 1 (Homo sapiens, UniProt Q13285); experiment: Counterscreen for inverse agonists of the liver receptor homolog-1 (LRH-1; NR5A2): Luminescence-based cell-based high throughput dose response assay to identify inverse agonists of the Steroidogenic Factor 1 Nuclear Receptor (SF1; NR5A1).; assay type: functional
[20] = target: Nuclear receptor subfamily 5 group A member 2 (Homo sapiens, UniProt O00482); assay type: functional, cell-based;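 also: HEK293T cells transfected with LRH-1 and a StAR promoter luciferase reporter; potency for inhibitors that lower LRH-1 driven reporter light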
[21] = mitochondrial function rescue without frataxin homolog – Friedreich's ataxia, plus single-dose screen, dose response (AID 1465); assay type: functional;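 also: yeast depleted of Yfh1p frataxin homolog grown on glycerol needing respiration; WST-1 tetrazolium dye reduction as measure of cellular dehydrogenase metabolic activity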
[22] = nonselective StAR promoter luciferase inhibitors – cell-based, luminescence, luciferase reporter, counter-screen for LRH-1 inverse agonist project, dose response (AID 651969); assay type: functional

Sequence of Steroidogenic factor 1 (Q13285 whole entry): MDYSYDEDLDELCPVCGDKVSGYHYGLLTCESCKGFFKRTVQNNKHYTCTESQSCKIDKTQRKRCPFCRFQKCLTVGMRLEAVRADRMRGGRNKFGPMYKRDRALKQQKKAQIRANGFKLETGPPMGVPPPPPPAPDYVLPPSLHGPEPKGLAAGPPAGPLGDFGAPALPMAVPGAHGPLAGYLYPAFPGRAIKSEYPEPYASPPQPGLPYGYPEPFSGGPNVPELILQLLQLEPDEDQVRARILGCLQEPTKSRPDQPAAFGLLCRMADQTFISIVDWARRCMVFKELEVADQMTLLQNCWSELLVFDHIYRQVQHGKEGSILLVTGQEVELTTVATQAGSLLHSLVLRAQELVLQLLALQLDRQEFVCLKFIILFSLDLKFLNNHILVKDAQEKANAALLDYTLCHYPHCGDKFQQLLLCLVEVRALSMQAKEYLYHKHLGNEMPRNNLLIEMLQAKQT
Sequence of Serine/threonine-protein phosphatase PP1-alpha catalytic subunit (P62136 whole entry): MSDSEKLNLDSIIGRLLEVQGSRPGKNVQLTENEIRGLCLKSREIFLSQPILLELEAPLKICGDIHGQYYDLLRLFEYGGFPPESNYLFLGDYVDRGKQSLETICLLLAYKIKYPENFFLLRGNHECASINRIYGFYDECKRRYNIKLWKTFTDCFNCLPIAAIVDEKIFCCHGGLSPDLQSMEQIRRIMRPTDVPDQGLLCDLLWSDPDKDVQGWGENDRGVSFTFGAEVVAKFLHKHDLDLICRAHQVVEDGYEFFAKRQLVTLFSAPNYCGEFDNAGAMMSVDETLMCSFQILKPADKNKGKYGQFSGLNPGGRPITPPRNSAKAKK
Sequence of Induced myeloid leukemia cell differentiation protein Mcl-1 (Q07820 whole entry): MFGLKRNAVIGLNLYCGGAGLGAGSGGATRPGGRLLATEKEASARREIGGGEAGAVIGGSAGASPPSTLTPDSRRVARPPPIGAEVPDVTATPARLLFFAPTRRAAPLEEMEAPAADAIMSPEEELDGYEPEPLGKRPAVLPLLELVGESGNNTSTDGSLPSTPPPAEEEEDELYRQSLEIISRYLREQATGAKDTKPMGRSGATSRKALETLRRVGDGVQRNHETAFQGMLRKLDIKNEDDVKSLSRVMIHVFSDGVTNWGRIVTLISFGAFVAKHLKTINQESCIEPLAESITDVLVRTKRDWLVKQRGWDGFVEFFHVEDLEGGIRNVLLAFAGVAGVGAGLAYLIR
Sequence of Latent membrane protein 1 (P03230 whole entry): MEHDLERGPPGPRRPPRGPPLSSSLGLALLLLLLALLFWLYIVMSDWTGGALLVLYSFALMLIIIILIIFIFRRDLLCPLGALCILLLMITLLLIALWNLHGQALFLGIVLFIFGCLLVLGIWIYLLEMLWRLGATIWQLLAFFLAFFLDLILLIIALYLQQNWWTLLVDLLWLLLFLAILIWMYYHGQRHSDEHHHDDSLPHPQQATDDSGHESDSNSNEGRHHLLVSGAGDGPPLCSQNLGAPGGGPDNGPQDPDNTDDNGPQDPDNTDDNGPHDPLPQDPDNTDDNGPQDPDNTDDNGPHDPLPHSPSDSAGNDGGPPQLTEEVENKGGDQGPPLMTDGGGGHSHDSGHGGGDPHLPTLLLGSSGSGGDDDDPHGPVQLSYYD
Sequence of Bcl-2-like protein 1 (Q07817 whole entry): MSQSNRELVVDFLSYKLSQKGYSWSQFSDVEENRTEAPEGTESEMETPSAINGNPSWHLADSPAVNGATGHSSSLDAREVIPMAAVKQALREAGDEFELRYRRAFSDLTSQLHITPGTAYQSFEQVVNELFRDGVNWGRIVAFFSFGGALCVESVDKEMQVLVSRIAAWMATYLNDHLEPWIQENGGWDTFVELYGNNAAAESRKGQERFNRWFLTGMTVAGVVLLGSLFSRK
Sequence of Nuclear receptor subfamily 5 group A member 2 (O00482 whole entry): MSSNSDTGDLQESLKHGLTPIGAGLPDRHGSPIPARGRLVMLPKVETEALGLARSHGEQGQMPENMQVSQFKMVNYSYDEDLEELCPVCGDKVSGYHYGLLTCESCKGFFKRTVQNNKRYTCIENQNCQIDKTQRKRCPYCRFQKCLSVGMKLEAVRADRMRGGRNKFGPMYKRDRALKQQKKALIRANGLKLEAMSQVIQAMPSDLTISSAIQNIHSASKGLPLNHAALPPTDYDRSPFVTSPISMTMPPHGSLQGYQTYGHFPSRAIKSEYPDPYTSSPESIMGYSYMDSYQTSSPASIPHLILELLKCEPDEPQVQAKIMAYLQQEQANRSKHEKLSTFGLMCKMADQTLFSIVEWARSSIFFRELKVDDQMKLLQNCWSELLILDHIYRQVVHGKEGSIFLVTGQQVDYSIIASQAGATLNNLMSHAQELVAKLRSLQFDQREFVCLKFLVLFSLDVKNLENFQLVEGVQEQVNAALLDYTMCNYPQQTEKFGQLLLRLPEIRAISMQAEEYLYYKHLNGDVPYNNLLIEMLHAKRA
Sequence of Serine/threonine-protein phosphatase (Q9BPW0 whole entry): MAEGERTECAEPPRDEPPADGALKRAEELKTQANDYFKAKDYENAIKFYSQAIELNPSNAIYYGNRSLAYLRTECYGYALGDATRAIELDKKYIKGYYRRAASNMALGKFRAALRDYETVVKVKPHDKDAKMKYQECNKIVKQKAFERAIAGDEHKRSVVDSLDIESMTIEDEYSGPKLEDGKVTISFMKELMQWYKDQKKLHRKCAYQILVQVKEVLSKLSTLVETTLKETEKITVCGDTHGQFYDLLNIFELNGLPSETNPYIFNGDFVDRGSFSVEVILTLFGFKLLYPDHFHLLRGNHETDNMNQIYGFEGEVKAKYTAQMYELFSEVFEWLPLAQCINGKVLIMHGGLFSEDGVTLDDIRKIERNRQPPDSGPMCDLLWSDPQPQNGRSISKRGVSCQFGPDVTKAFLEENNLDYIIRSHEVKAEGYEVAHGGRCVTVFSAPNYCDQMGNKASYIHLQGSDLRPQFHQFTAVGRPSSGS
Sequence of Peroxisome proliferator-activated receptor gamma/Nuclear receptor coactivator 1 (P37231 whole entry): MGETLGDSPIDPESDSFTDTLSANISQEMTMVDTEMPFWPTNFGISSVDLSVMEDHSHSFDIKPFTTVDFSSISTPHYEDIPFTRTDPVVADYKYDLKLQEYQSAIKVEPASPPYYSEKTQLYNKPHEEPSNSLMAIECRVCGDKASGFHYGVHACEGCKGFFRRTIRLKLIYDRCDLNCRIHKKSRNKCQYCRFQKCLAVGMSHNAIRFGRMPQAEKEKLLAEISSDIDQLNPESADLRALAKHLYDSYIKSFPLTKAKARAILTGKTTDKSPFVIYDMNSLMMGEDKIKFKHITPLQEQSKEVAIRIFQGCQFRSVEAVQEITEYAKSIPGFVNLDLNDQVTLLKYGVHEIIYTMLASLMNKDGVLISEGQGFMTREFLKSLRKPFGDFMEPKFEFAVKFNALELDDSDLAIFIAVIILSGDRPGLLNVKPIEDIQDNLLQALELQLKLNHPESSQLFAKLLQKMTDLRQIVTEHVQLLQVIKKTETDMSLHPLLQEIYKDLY
Sequence of Peroxisome proliferator-activated receptor gamma/Nuclear receptor coactivator 1 (Q15788 whole entry, further chain): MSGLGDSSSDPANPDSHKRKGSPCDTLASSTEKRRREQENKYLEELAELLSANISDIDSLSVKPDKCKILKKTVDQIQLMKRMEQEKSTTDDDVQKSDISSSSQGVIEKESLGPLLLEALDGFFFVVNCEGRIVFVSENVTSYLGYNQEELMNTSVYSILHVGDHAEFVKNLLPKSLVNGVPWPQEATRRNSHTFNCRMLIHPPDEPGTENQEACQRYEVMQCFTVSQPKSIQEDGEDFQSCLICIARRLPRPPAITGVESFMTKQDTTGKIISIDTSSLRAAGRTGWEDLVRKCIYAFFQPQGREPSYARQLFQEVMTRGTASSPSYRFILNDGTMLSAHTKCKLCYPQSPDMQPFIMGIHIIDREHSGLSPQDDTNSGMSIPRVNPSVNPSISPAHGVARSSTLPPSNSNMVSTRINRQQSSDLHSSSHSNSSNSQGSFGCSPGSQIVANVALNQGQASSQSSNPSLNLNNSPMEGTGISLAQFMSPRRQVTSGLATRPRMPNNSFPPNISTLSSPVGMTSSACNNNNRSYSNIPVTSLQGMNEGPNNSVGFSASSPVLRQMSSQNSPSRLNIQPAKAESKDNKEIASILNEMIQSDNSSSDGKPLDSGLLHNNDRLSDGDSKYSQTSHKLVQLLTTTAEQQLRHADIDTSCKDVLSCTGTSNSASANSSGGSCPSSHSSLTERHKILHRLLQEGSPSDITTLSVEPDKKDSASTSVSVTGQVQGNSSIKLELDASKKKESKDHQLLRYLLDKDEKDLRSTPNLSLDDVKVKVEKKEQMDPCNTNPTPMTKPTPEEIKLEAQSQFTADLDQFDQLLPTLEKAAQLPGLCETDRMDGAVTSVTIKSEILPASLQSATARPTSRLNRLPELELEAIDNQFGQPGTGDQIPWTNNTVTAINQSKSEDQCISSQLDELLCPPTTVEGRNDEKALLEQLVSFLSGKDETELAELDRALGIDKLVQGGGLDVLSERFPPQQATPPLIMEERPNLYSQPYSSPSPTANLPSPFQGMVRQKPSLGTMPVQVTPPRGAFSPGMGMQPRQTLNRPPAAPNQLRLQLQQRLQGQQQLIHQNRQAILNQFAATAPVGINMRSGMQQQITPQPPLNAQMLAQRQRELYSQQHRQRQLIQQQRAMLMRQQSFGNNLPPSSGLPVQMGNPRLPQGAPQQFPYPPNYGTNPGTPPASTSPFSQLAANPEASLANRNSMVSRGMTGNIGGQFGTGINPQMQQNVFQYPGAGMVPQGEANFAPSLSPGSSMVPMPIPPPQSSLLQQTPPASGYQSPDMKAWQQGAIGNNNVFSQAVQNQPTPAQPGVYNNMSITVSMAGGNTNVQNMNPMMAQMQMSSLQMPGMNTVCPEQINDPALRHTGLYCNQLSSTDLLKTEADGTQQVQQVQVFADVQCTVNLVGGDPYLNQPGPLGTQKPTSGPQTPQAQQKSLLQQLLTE

SMILES: CCCCCN(C(=O)CCC(=O)OCC(=O)c1ccc(CCC)cc1)c1c(N)n(CCCC)c(=O)[nH]c1=O
- IC50 [1]: 39.1 µM (not active)
- IC50 [2]: 10.6 µM (not active)

SMILES: O=C(COc1ccccc1-c1ccccc1)NCc1ccco1
- EC50 [3]: > 79.4 µM (not active)
- EC50 [4]: > 79.4 µM (not active)
- EC50 [5]: > 79.4 µM (not active)

SMILES: O=S(=O)(Nc1cccc(-c2ccc(N3CCCCCC3)nn2)c1)c1ccccc1Cl
- CC50 [6]: > 40 µM (active)

SMILES: COc1cnc(-c2ccccn2)nc1Sc1cccc(Cl)c1
- IC50 [7]: 4.75 µM (active)
- EC50 [8]: > 160 µM (inactive)
- IC50 [9]: > 67 µM (not active)
- EC50 [10]: > 38 µM (not active)

SMILES: Nc1ccc(C(=O)N/N=C\c2cc(N=Nc3cccc4ccccc34)ccc2O)cc1
- EC50 [11]: 7.41 µM (active)
- AC50 [12]: 11.1 µM (active)
- EC50 [13]: > 350 µM (not active)
- IC50 [14]: 6.83 µM (active)
- AC50 [15]: 30.2 µM (active)
- IC50 [16]: > 109 µM (not active)
- EC50 [17]: 1.12 µM (active)
- EC50 [18]: 7.62 µM (active)

SMILES: CC1CCCN(c2cc(N(C)CCO)c([N+](=O)[O-])c3nonc23)C1 (configuration not stated)
- IC50 [19]: 7.01 µM (active)
- IC50 [20]: 12.3 µM (inactive)
- EC50 [21]: > 100 µM (active)
- IC50 [22]: 35.9 µM (inactive)
